Results reported in patent publication US12077503B2, “Substituted cyclic amides and their use as herbicides” (FMC CORPORATION, priority 2015, dated 2024).

Key:
Type in all cases: in vivo
[1] = tested on: barnyardgrass (Echinochloa crus-galli); experiment: Test G Pre-Emergence Protocol; details: Echinochloa crus-galli, pre-emergence, 312 h, evaluated after 13 days; for pest or weed control at 15.625 g/ha: 15.625 g ai/ha; for pest or weed control at 15.625 g/ha / pest or weed control at 250 g/ha: read-out: Barnyardgrass damage rating (100=total damage to plant; 0=no damage to plant); for pest or weed control at 62.5 g/ha: 62.5 g ai/ha, 100=total damage to plant, 0=no damage to plant, read-out: Barnyardgrass damage rating; for pest or weed control at 250 g/ha: 250 g ai/ha
Summary of the method: (§1)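 Pre-emergence spray, 15.625/62.5/250 g/ha, vehicle acetone:water 50:50 + 0.5% Tween 20, applied 1 d after sowing. Glasshouse 24/16° C, 14 h light, 65% RH, watered twice daily. Visual damage rating at 13 d, 0–100 scale.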

corn (Zea mays) [2] = experiment: Test G Pre-Emergence Protocol; details: Zea mays, pre-emergence, 312 h, evaluated after 13 days; for plant injury at 15.625 g/ha: 15.625 g ai/ha; for plant injury at 15.625 g/ha / plant injury at 250 g/ha: read-out: Corn damage rating (100=total damage to plant; 0=no damage to plant); for plant injury at 62.5 g/ha: 62.5 g ai/ha, 100=total damage to plant, 0=no damage to plant, read-out: Corn damage rating; for plant injury at 250 g/ha: 250 g ai/ha
Summary of the method: as §1

[3] = tested on: giant foxtail (Setaria faberi); experiment: Test G Pre-Emergence Protocol; details: Setaria faberi, pre-emergence, 312 h, evaluated after 13 days; for pest or weed control at 15.625 g/ha: 15.625 g ai/ha; for pest or weed control at 15.625 g/ha / pest or weed control at 250 g/ha: read-out: Foxtail, Giant damage rating (100=total damage to plant; 0=no damage to plant); for pest or weed control at 62.5 g/ha: 62.5 g ai/ha, 100=total damage to plant, 0=no damage to plant, read-out: Foxtail, Giant damage rating; for pest or weed control at 250 g/ha: 250 g ai/ha
Summary of the method: as §1

[4] = tested on: ivy-leaved morning glory (Ipomoea hederacea); experiment: Test G Pre-Emergence Protocol; details: Ipomoea, pre-emergence, 312 h, evaluated after 13 days; for pest or weed control at 15.625 g/ha: 15.625 g ai/ha; for pest or weed control at 15.625 g/ha / pest or weed control at 250 g/ha: read-out: Morningglory, Ivy-leaved damage rating (100=total damage to plant; 0=no damage to plant); for pest or weed control at 62.5 g/ha: 62.5 g ai/ha, 100=total damage to plant, 0=no damage to plant, read-out: Morningglory, Ivy-leaved damage rating; for pest or weed control at 250 g/ha: 250 g ai/ha
Summary of the method: as §1

[5] = tested on: redroot pigweed (Amaranthus retroflexus); experiment: Test G Pre-Emergence Protocol; details: Amaranthus retroflexus, pre-emergence, 312 h, evaluated after 13 days; for pest or weed control at 15.625 g/ha: 15.625 g ai/ha; for pest or weed control at 15.625 g/ha / pest or weed control at 250 g/ha: read-out: Pigweed, Redroot damage rating (100=total damage to plant; 0=no damage to plant); for pest or weed control at 62.5 g/ha: 62.5 g ai/ha, 100=total damage to plant, 0=no damage to plant, read-out: Pigweed, Redroot damage rating; for pest or weed control at 250 g/ha: 250 g ai/ha
Summary of the method: as §1

[6] = tested on: velvetleaf (Abutilon theophrasti); experiment: Test G Pre-Emergence Protocol; details: Abutilon theophrasti, pre-emergence, 312 h, evaluated after 13 days; for pest or weed control at 15.625 g/ha: 15.625 g ai/ha; for pest or weed control at 15.625 g/ha / pest or weed control at 250 g/ha: read-out: Velvetleaf damage rating (100=total damage to plant; 0=no damage to plant); for pest or weed control at 62.5 g/ha: 62.5 g ai/ha, 100=total damage to plant, 0=no damage to plant, read-out: Velvetleaf damage rating; for pest or weed control at 250 g/ha: 250 g ai/ha
Summary of the method: as §1

[7] = tested on: barnyardgrass (Echinochloa crus-galli); experiment: Test G Post-Emergence Protocol; details: Echinochloa crus-galli, post-emergence, 312 h, read-out: Barnyardgrass damage rating; for pest or weed control at 15.625 g/ha: 15.625 g ai/ha, evaluated after 13 days (100=total damage to plant; 0=no damage to plant); for pest or weed control at 62.5 g/ha: 62.5 g ai/ha; for pest or weed control at 62.5 g/ha / pest or weed control at 250 g/ha: evaluated after 13 days, 100=total damage to plant, 0=no damage to plant; for pest or weed control at 250 g/ha: 250 g ai/ha
Summary of the method: (§2)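 Values are percent visual injury at 13 days after treatment (0 none, 100 total). Treatment was a post-emergence spray at 15.625, 62.5 or 250 g/ha on 8-day-old pot plants kept at 24/16 °C.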

corn (Zea mays) [8] = experiment: Test G Post-Emergence Protocol; details: Zea mays, post-emergence, 312 h, read-out: Corn damage rating; for plant injury at 15.625 g/ha: 15.625 g ai/ha, evaluated after 13 days (100=total damage to plant; 0=no damage to plant); for plant injury at 62.5 g/ha: 62.5 g ai/ha; for plant injury at 62.5 g/ha / plant injury at 250 g/ha: evaluated after 13 days, 100=total damage to plant, 0=no damage to plant; for plant injury at 250 g/ha: 250 g ai/ha
Summary of the method: as §2

[9] = tested on: giant foxtail (Setaria faberi); experiment: Test G Post-Emergence Protocol; details: Setaria faberi, post-emergence, 312 h, read-out: Foxtail, Giant damage rating; for pest or weed control at 15.625 g/ha: 15.625 g ai/ha, evaluated after 13 days (100=total damage to plant; 0=no damage to plant); for pest or weed control at 62.5 g/ha: 62.5 g ai/ha; for pest or weed control at 62.5 g/ha / pest or weed control at 250 g/ha: evaluated after 13 days, 100=total damage to plant, 0=no damage to plant; for pest or weed control at 250 g/ha: 250 g ai/ha
Summary of the method: as §2

[10] = tested on: ivy-leaved morning glory (Ipomoea hederacea); experiment: Test G Post-Emergence Protocol; details: Ipomoea, post-emergence, 312 h, read-out: Morningglory, Ivy-leaved damage rating; for pest or weed control at 15.625 g/ha: 15.625 g ai/ha, evaluated after 13 days (100=total damage to plant; 0=no damage to plant); for pest or weed control at 62.5 g/ha: 62.5 g ai/ha; for pest or weed control at 62.5 g/ha / pest or weed control at 250 g/ha: evaluated after 13 days, 100=total damage to plant, 0=no damage to plant; for pest or weed control at 250 g/ha: 250 g ai/ha
Summary of the method: as §2

[11] = tested on: redroot pigweed (Amaranthus retroflexus); experiment: Test G Post-Emergence Protocol; details: Amaranthus retroflexus, post-emergence, 312 h, read-out: Pigweed, Redroot damage rating; for pest or weed control at 15.625 g/ha: 15.625 g ai/ha, evaluated after 13 days (100=total damage to plant; 0=no damage to plant); for pest or weed control at 62.5 g/ha: 62.5 g ai/ha; for pest or weed control at 62.5 g/ha / pest or weed control at 250 g/ha: evaluated after 13 days, 100=total damage to plant, 0=no damage to plant; for pest or weed control at 250 g/ha: 250 g ai/ha
Summary of the method: as §2

[12] = tested on: velvetleaf (Abutilon theophrasti); experiment: Test G Post-Emergence Protocol; details: Abutilon theophrasti, post-emergence, 312 h, read-out: Velvetleaf damage rating; for pest or weed control at 15.625 g/ha: 15.625 g ai/ha, evaluated after 13 days (100=total damage to plant; 0=no damage to plant); for pest or weed control at 62.5 g/ha: 62.5 g ai/ha; for pest or weed control at 62.5 g/ha / pest or weed control at 250 g/ha: evaluated after 13 days, 100=total damage to plant, 0=no damage to plant; for pest or weed control at 250 g/ha: 250 g ai/ha
Summary of the method: as §2

| SMILES | pest or weed control at 15.625 g/ha [1] [%] | pest or weed control at 62.5 g/ha [1] [%] | pest or weed control at 250 g/ha [1] [%] | plant injury at 15.625 g/ha (corn (Zea mays) [2]) [%] | plant injury at 62.5 g/ha (corn (Zea mays) [2]) [%] | plant injury at 250 g/ha (corn (Zea mays) [2]) [%] | pest or weed control at 15.625 g/ha [3] [%] | pest or weed control at 62.5 g/ha [3] [%] | pest or weed control at 250 g/ha [3] [%] | pest or weed control at 15.625 g/ha [4] [%] | pest or weed control at 62.5 g/ha [4] [%] | pest or weed control at 250 g/ha [4] [%] | pest or weed control at 15.625 g/ha [5] [%] | pest or weed control at 62.5 g/ha [5] [%] | pest or weed control at 250 g/ha [5] [%] | pest or weed control at 15.625 g/ha [6] [%] | pest or weed control at 62.5 g/ha [6] [%] | pest or weed control at 250 g/ha [6] [%] | pest or weed control at 15.625 g/ha [7] [%] | pest or weed control at 62.5 g/ha [7] [%] | other results |
| --- | --- | --- | --- | --- | --- | --- | --- | --- | --- | --- | --- | --- | --- | --- | --- | --- | --- | --- | --- | --- | --- |
| CC1OC(=O)c2c(NC(=O)[C@H]3C(=O)N(C)C[C@@H]3c3ccc(C(F)(F)F)cc3)cccc21 (mixture of isomers) [Compound 1670] | 0 | 0 | 0 | 0 | 0 | 0 | 0 | 20 | 50 | 0 | 0 | 0 | 0 | 0 | 20 | 0 | 0 | 0 | 0 | 20 | pest or weed control at 250 g/ha [7]: 60%; plant injury at 15.625 g/ha (corn (Zea mays) [8]): 0%; plant injury at 62.5 g/ha (corn (Zea mays) [8]): 0%; plant injury at 250 g/ha (corn (Zea mays) [8]): 10%; pest or weed control at 15.625 g/ha [9]: 0%; pest or weed control at 62.5 g/ha [9]: 70%; pest or weed control at 250 g/ha [9]: 80%; pest or weed control at 15.625 g/ha [10]: 0%; pest or weed control at 62.5 g/ha [10]: 0%; pest or weed control at 250 g/ha [10]: 0%; pest or weed control at 15.625 g/ha [11]: 0%; pest or weed control at 62.5 g/ha [11]: 20%; pest or weed control at 250 g/ha [11]: 90%; pest or weed control at 15.625 g/ha [12]: 0%; pest or weed control at 62.5 g/ha [12]: 0%; pest or weed control at 250 g/ha [12]: 0% |
| CN1CCCC(NC(=O)[C@H]2C(=O)N(C)C[C@@H]2c2ccc(C(F)(F)F)cc2)C1=O (mixture of isomers) [Compound 1674] | 0 | 0 | 0 | 0 | 0 | 0 | 0 | 0 | 0 | 0 | 0 | 0 | 0 | 0 | 0 | 0 | 0 | 0 | 0 | 0 | pest or weed control at 250 g/ha [7]: 0%; plant injury at 15.625 g/ha (corn (Zea mays) [8]): 0%; plant injury at 62.5 g/ha (corn (Zea mays) [8]): 0%; plant injury at 250 g/ha (corn (Zea mays) [8]): 0%; pest or weed control at 15.625 g/ha [9]: 0%; pest or weed control at 62.5 g/ha [9]: 0%; pest or weed control at 250 g/ha [9]: 20%; pest or weed control at 15.625 g/ha [10]: 0%; pest or weed control at 62.5 g/ha [10]: 0%; pest or weed control at 250 g/ha [10]: 0%; pest or weed control at 15.625 g/ha [11]: 0%; pest or weed control at 62.5 g/ha [11]: 0%; pest or weed control at 250 g/ha [11]: 0%; pest or weed control at 15.625 g/ha [12]: 0%; pest or weed control at 62.5 g/ha [12]: 0%; pest or weed control at 250 g/ha [12]: 0% |
| CC(O)c1ccccc1NC(=O)[C@H]1C(=O)N(C)C[C@@H]1c1cccc(C(F)(F)F)c1 (mixture of isomers) [Compound 1783] | 50 | 90 | 90 | 50 | 80 | 90 | 80 | 90 | 90 | 10 | 10 | 40 | 0 | 0 | 40 | 0 | 10 | 70 | 70 | 80 | pest or weed control at 250 g/ha [7]: 80%; plant injury at 15.625 g/ha (corn (Zea mays) [8]): 70%; plant injury at 62.5 g/ha (corn (Zea mays) [8]): 80%; plant injury at 250 g/ha (corn (Zea mays) [8]): 80%; pest or weed control at 15.625 g/ha [9]: 80%; pest or weed control at 62.5 g/ha [9]: 80%; pest or weed control at 250 g/ha [9]: 80%; pest or weed control at 15.625 g/ha [10]: 10%; pest or weed control at 62.5 g/ha [10]: 60%; pest or weed control at 250 g/ha [10]: 70%; pest or weed control at 15.625 g/ha [11]: 0%; pest or weed control at 62.5 g/ha [11]: 0%; pest or weed control at 250 g/ha [11]: 20%; pest or weed control at 15.625 g/ha [12]: 0%; pest or weed control at 62.5 g/ha [12]: 20%; pest or weed control at 250 g/ha [12]: 50% |
